Source: article PMC6059979 (European journal of medicinal chemistry, 2018)
Peptide text beside a SMILES is read from it. * marks the point of attachment. Palmitoyl = CCCCCCCCCCCCCCCC(=O)*

Columns and labels:
Type in all cases: cell-based
[1] = test system: Escherichia coli (E. coli, JM109); conditions: JM109, 18 h
[2] = test system: Vancomycin Resistant Enterococcus faecalis (E. faecalis, ATCC 700802); conditions: ATCC 700802, 18 h
[3] = test system: Klebsiella pneumoniae (K. pneumoniae, ATCC 13383); conditions: ATCC 13383, 18 h
[4] = test system: Methicillin Resistant Staphylococcus aureus (MRSA, ATCC 33591); conditions: ATCC 33591, 18 h
[5] = test system: Methicillin Resistant Staphylococcus epidermidis (MRSE, RP62A); conditions: Methicillin Resistant (, RP62A, 18 h)

CCCCCCCCCCCCCCCC(=O)N[C@@H](CCCCN)C(=O)N[C@@H](Cc1ccccc1)C(=O)N[C@@H](CCCCN)C(N)=O [C16-K-F-K] (Palmitoyl-Lys-Phe-Lys-NH2)
>25 µg/mL: MIC E. coli [1] | MIC E. faecalis [2] | MIC K. pneumoniae [3] | MIC MRSA [4] | MIC MRSE [5]
